A short description of data set [1]: Excipient compatibility by DSC. It is filed as physicochemical. As to conditions: 1:1 (w/w) mixtures with xanthan gum, chitosan, magnesium stearate, NaHCO3. As for the experimental part: Samples of 5-10 mg in weight were placed in hermetically sealed DSC pans. Samples were scanned at a rate of 10° C./min, and thermograms were obtained. The thermal analyzer (DSC) was calibrated prior to use by indium. The calibration procedure was repeated many times prior to DSC runs.
In general terms: DSC measures the heat that a sample takes up or gives off during a temperature scan.

The conditions of data set [2]: cited from earlier work.
The conditions of data set [3]: administered orally; cited from earlier work.

The structures appear in SMILES notation. Structures can show the parent of a compound that is named as a salt.

As for `CC(C)(C)NCC(O)c1cc(O)cc(O)c1` (stereo not drawn) [Terbutaline sulfate], in data set [1], the “Excipient compatibility (DSC thermograms)” value is “excipients are compatible with Terbutaline sulfate”. Also, the Solubility in water in data set [2] is over 20 mg/mL. In addition, in data set [3], the Biological half-life result is “about 3.6 hrs”.

The values are drawn from patent US20080206334A1 (priority 2005, published 2008).
